In the NIST ThermoML archive (doi:10.1016/j.jct.2014.06.012):
“And” between values parts separate entries of the source, which are not always exact repeats. Equal entries are not always repeated.

Experiment: molar heat capacity at constant pressure
Conditions: 101.33 kPa, Crystal 1

O=P([O-])([O-])[O-].[Cs+].[Mn+2] [cesium manganese(II) phosphate]
molar heat capacity at constant pressure
Conditions	Small sample (50 mg) DSC	Vacuum adiabatic calorimetry
240.73 K	–	124.88 J/K/mol
243.23 K	–	125.55 J/K/mol
245.29 K	–	126.13 J/K/mol
247.36 K	–	126.8 J/K/mol
250 K	–	126.96 J/K/mol
250.13 K	–	127.46 J/K/mol
252.55 K	–	128.04 J/K/mol
255.37 K	–	128.79 J/K/mol
258.11 K	–	129.46 J/K/mol
260 K	–	129.62 J/K/mol
260.99 K	–	130.29 J/K/mol
263.88 K	–	131.12 J/K/mol
266.76 K	–	131.87 J/K/mol
269.64 K	–	132.62 J/K/mol
270 K	–	132.37 J/K/mol
272.52 K	–	133.45 J/K/mol
275.39 K	–	134.28 J/K/mol
278.26 K	–	135.19 J/K/mol
280 K	–	135.11 J/K/mol
281.34 K	–	136.02 J/K/mol
283.99 K	–	136.77 J/K/mol
286.86 K	–	137.69 J/K/mol
289.06 K	–	138.1 J/K/mol
290 K	–	138.02 J/K/mol
291.64 K	–	139.02 J/K/mol
295.04 K	–	140.18 J/K/mol
297.8 K	–	141.01 J/K/mol
298.15 K	–	140.43 J/K/mol
300 K	–	141.01 J/K/mol
300.2 K	–	141.76 J/K/mol
302.7 K	–	142.51 J/K/mol
305.33 K	–	143.34 J/K/mol
308.4 K	–	144.17 J/K/mol
310 K	–	144.17 J/K/mol
310.94 K	–	144.92 J/K/mol
314 K	–	145.92 J/K/mol
317.6 K	–	147 J/K/mol
320 K	–	147.58 J/K/mol
320.46 K	–	147.91 J/K/mol
323.3 K	–	148.91 J/K/mol
326.66 K	–	150.08 J/K/mol
329.3 K	–	150.91 J/K/mol
330 K	–	151.16 J/K/mol
330.7 K	151.32 J/K/mol	–
331.64 K	–	151.57 J/K/mol
332.7 K	152.15 J/K/mol	–
333.9 K	152.15 J/K/mol	–
335.3 K	–	152.49 J/K/mol
337 K	152.99 J/K/mol	–
338.7 K	–	153.4 J/K/mol
340 K	153.82 J/K/mol	154.9 J/K/mol
341.6 K	153.82 J/K/mol	–
343.13 K	–	154.65 J/K/mol
345 K	155.48 J/K/mol	–
347.5 K	155.48 J/K/mol	–
350 K	156.31 J/K/mol	–
352.5 K	157.14 J/K/mol	–
355 K	157.14 J/K/mol	–
357.7 K	157.97 J/K/mol	–
360 K	158.81 J/K/mol	–
360.2 K	157.97 J/K/mol	–
362.5 K	158.81 J/K/mol	–
364.9 K	158.81 J/K/mol	–
367.5 K	159.64 J/K/mol	–
370 K	160.47 J/K/mol	–
372.5 K	160.47 J/K/mol	–
374.8 K	161.3 J/K/mol	–
377.3 K	161.3 J/K/mol	–
380 K	162.13 J/K/mol	–
382.2 K	162.13 J/K/mol	–
385 K	162.96 J/K/mol	–
387.5 K	162.96 J/K/mol	–
390 K	163.8 J/K/mol	–
392.5 K	163.8 J/K/mol	–
395 K	164.63 J/K/mol	–
397.5 K	164.63 J/K/mol	–
400 K	164.63 J/K/mol	–
400.3 K	165.46 J/K/mol	–
402.8 K	165.46 J/K/mol	–
405.3 K	166.29 J/K/mol	–
407.5 K	166.29 J/K/mol	–
409.5 K	166.29 J/K/mol	–
410 K	166.29 J/K/mol	–
412.6 K	166.29 J/K/mol	–
415 K	167.12 J/K/mol	–
417.5 K	167.12 J/K/mol	–
420 K	167.12 J/K/mol	–
422.5 K	167.12 J/K/mol	–
425 K	167.95 J/K/mol	–
427.5 K	167.95 J/K/mol	–
430 K	167.95 J/K/mol	–
432.5 K	167.95 J/K/mol	–
435 K	168.78 J/K/mol	–
437.5 K	168.78 J/K/mol	–
440 K	169.62 J/K/mol and 168.78 J/K/mol	–
442.5 K	169.62 J/K/mol	–
445 K	169.62 J/K/mol	–
447.5 K	169.62 J/K/mol	–
450 K	170.45 J/K/mol	–
452.5 K	170.45 J/K/mol	–
455 K	170.45 J/K/mol	–
457.5 K	170.45 J/K/mol	–
460 K	171.28 J/K/mol	–
462.5 K	171.28 J/K/mol	–
465 K	171.28 J/K/mol	–
467.5 K	171.28 J/K/mol	–
469.9 K	172.11 J/K/mol	–
470 K	172.11 J/K/mol	–
472.5 K	172.11 J/K/mol	–
475 K	172.11 J/K/mol	–
477.5 K	172.11 J/K/mol	–
480 K	172.94 J/K/mol	–
482.5 K	172.94 J/K/mol	–
485 K	172.94 J/K/mol	–
487.5 K	172.94 J/K/mol	–
490 K	173.77 J/K/mol	–
492.5 K	173.77 J/K/mol	–
495 K	173.77 J/K/mol	–
497.5 K	174.6 J/K/mol	–
500 K	174.6 J/K/mol	–
502.5 K	174.6 J/K/mol	–
505.3 K	174.6 J/K/mol	–
507.5 K	175.44 J/K/mol	–
510 K	175.44 J/K/mol	–
512.5 K	175.44 J/K/mol	–
515 K	175.44 J/K/mol	–
517.5 K	176.27 J/K/mol	–
520 K	176.27 J/K/mol	–
522.5 K	176.27 J/K/mol	–
525 K	176.27 J/K/mol	–
527.5 K	177.1 J/K/mol	–
530 K	177.1 J/K/mol	–
532.5 K	177.1 J/K/mol	–
535 K	177.1 J/K/mol	–
537.5 K	177.93 J/K/mol	–
540 K	177.93 J/K/mol	–
542.5 K	177.93 J/K/mol	–
545 K	177.93 J/K/mol	–
547.5 K	178.76 J/K/mol	–
550 K	178.76 J/K/mol	–
552.5 K	178.76 J/K/mol	–
555 K	178.76 J/K/mol	–
557.5 K	179.59 J/K/mol	–
560 K	179.59 J/K/mol	–
562.5 K	179.59 J/K/mol	–
565 K	179.59 J/K/mol	–
567.5 K	180.42 J/K/mol	–
570 K	180.42 J/K/mol	–
572.5 K	180.42 J/K/mol	–
575 K	180.42 J/K/mol	–
577.5 K	181.26 J/K/mol	–
580 K	181.26 J/K/mol	–
582.5 K	181.26 J/K/mol	–
585 K	181.26 J/K/mol	–
587.5 K	182.09 J/K/mol	–
590 K	182.09 J/K/mol	–
592.5 K	182.09 J/K/mol	–
595 K	182.09 J/K/mol	–
597.5 K	182.92 J/K/mol	–
600 K	182.92 J/K/mol	–
602.5 K	182.92 J/K/mol	–
605 K	183.75 J/K/mol	–
607.5 K	183.75 J/K/mol	–
610 K	183.75 J/K/mol	–
612.5 K	183.75 J/K/mol	–
615 K	184.58 J/K/mol	–
617.5 K	184.58 J/K/mol	–
620 K	184.58 J/K/mol	–
622.4 K	184.58 J/K/mol	–
625 K	185.41 J/K/mol	–
627.5 K	185.41 J/K/mol	–
630 K	185.41 J/K/mol	–
632.5 K	186.24 J/K/mol	–
635 K	186.24 J/K/mol	–
637.5 K	186.24 J/K/mol	–
640 K	186.24 J/K/mol	–
642.5 K	186.24 J/K/mol	–
645.1 K	187.08 J/K/mol	–
647.5 K	187.08 J/K/mol	–
650 K	187.08 J/K/mol	–
